From article PMC11117929, “Benzamide Trimethoprim Derivatives as Human Dihydrofolate Reductase Inhibitors—Molecular Modeling and In Vitro Activity Study” (Biomedicines, 2024)

How the values were obtained:
[1] = molecular target: T1, recombinant human DHFR (Homo sapiens, UniProt P00374); assay: Dihydrofolate reductase (DHFR) inhibition assay (assay kit); assay type: biochemical; conditions: mean of three assays ± S.D.
T1 construct: purchased Sigma Aldrich (St. Louis, MO, USA)
T1 sequence (P00374 1-187): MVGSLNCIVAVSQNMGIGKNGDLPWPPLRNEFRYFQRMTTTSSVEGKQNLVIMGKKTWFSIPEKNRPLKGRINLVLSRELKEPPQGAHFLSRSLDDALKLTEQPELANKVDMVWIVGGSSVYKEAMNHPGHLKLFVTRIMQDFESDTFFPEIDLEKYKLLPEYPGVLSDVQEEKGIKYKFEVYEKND
Description: All reagents were purchased from Fluka (Sigma-Aldrich, Poznań, Poland), Merck (Darmstadt, Germany), or Alfa Aesar (Karlsruhe, Germany) and used without further purification. Dichloromethane (DCM) and dimethylformamide (DMF) were stored in 4 Å molecular sieves. The Dihydrofolate Reductase Assay Kit was purchased from Sigma Aldrich (St. Louis, MO, USA).
The inhibition of dihydrofolate reductase by the new TMP analogs, that is, determining their effect on the activity of recombinant human DHFR, was tested according to the instructions provided by the manufacturer and used previously.
In all experiments, the mean values for three assays ± standard deviations (S.D.) were calculated. The results were submitted to statistical analysis using the Student’s t-test. Differences were considered significant at p < 0.05.

[2] = molecular target: acetylcholinesterase (AChE); parameters: method as in PMID 37834347; conditions: cited from earlier work
[3] = molecular target: β-secretase (BACE1); parameters: method as in PMID 37834347; conditions: cited from earlier work
[4] = system: various cancer cells; parameters: method as in PMID 36680987; conditions: cited from earlier work
[5] = system: plasmid DNA; conditions: ethidium bromide displacement, netropsin as standard; cited from earlier work

| Compound | IC50 [1] | further results |
| --- | --- | --- |
| COc1cc(C(=O)Nc2cccc(NC(=O)c3cc(OC)c(OC)c(OC)c3)c2)cc(OC)c1OC [JW1] | 8.5 ± 0.06 µM | – |
| COc1cc(OC)cc(C(=O)Nc2cccc(NC(=O)c3cc(OC)cc(OC)c3)c2)c1 [JW2] | 10.15 ± 0.02 µM | – |
| COc1ccc(C(=O)Nc2cccc(NC(=O)c3ccc(OC)c(OC)c3)c2)cc1OC [JW3] | 9.83 ± 0.03 µM | – |
| COc1ccc(C(=O)Nc2cccc(NC(=O)c3ccc(OC)cc3)c2)cc1 [JW4] | 15.3 ± 0.04 µM | – |
| COc1cc(C(=O)Nc2ccc(NC(=O)c3cc(OC)c(OC)c(OC)c3)cc2)cc(OC)c1OC [JW5] | 4.8 ± 0.05 µM | – |
| COc1cc(OC)cc(C(=O)Nc2ccc(NC(=O)c3cc(OC)cc(OC)c3)cc2)c1 [JW6] | 4.72 ± 0.05 µM | – |
| COc1ccc(C(=O)Nc2ccc(NC(=O)c3ccc(OC)c(OC)c3)cc2)cc1OC [JW7] | 8.13 ± 0.06 µM | – |
| COc1ccc(C(=O)Nc2ccc(NC(=O)c3ccc(OC)cc3)cc2)cc1 [JW8] | 12.15 ± 0.02 µM | IC50 [2]: 0.056 µM; IC50 [3]: 9.01 µM |
| COc1cc(C(=O)Nc2cccc([N+](=O)[O-])c2)cc(OC)c1OC [MB1] | 10.16 ± 0.01 µM | – |
| COc1cc(NC(=O)c2cc(OC)c(OC)c(OC)c2)cc(OC)c1OC [MB3] | 9.17 ± 0.01 µM | antiproliferative activity [4]: showed antiproliferative activity |
| COc1cc(CNC(=O)c2cc(OC)c(OC)c(OC)c2)cc(OC)c1OC [MB4] | 20.17 ± 0.03 µM | antiproliferative activity [4]: showed antiproliferative activity |
| COc1cc(Cc2cnc(N)nc2N)cc(OC)c1OC [TMP, trimethoprim] | – | binding to plasmid DNA [5]: does not bind to the plasmid |
